Test results: patent EP4818178A1, “PREPARATION AND USE OF PYRIMIDOTHIOPYRANONE KRAS MUTANT PROTEIN INHIBITOR” (Ya Therapeutics Inc, priority 2024, dated 2025)

target: KRasG12D (Homo sapiens, UniProt P01116, G12D); assay: KRAS inhibitory activity test, TR-FRET (inhibition of binding of KRasG12D to GTP, SOS/GTP nucleotide exchange); format: biochemical; conditions: read-out: IC50 values of the compounds for inhibiting KRAS enzymes, G12D
Protocol: • 1. […] Reagent Preparation: • a. Storage Reagents:
Prepare a 1L solution by mixing 20mL of 1000mM HEPES, 20mL of 500mM EDTA, 10mL of 5M sodium chloride, 0.1mL of 100% Tween 20, and 949.9mL of water. Sterilize by filtration and store at 4°C.
Prepare a 1L solution by mixing 20mL of 1000mM HEPES, 10mL of 1000mM magnesium chloride, 30mL of 5M sodium chloride, 0.05mL of 100% Tween 20, and 939.95mL of water. Sterilize by filtration and store at 4°C. 3) KRAS/Bodipy GDP/Tb-SA Mixture: Mix 9.5 µL of 95 µM KRasG12D protein with 440.5 µL of KRAS nucleotide exchange buffer. Incubate at room temperature for 1 hour. Then, mix with 8.4 µL of 17.9 µM Tb-SA, 1.8 µL of 5 mM Bodipy GDP, and 9539.8 µL of KRAS experimental buffer to prepare […]. After mixing, incubate at room temperature for 6 hours and store at -80°C.
• 1) KRAS Enzyme Solution: Mix 73.3 µL of KRAS/Bodipy GDP/Tb-SA mixture with 2126.7 µL of KRAS experimental buffer to prepare a 2200 µL solution. • 2) SOS/GTP Mixture
c. Experimental Procedure: Mix 1.59 µL of 166 µM SOS protein with 198 µL of 100 mM... GTP and 0.41 µL KRAS buffer were prepared to a 2200 µL solution. The stock solution concentration of the control compound was 1 mM, and the stock solution concentration of the test compound was 10 mM. 9 µL of the control compound and the test compound were transferred to a 384-LDV plate. The compound on the LDV plate was 3-fold diluted 10-point using Bravo. 9 nL of the compound on the LDV plate was transferred to the experimental plate using ECHO. 3 µL of a 3 nM Kras/0.5 nM TB-SA/30 nM BodipyGDP mixture and 3 µL of Ras buffer were added to each well of the experimental plate using a Dragonfly autopilot. The plate was centrifuged at 1000 rpm for 1 minute. The plate was incubated at room temperature for 1 hour. 3 µL of 120 nM SOS/9 mM KRAS buffer was added to each well of the experimental plate using a Dragonfly autopilot. The […] was centrifuged at 1000 rpm for 1 minute; the plate was incubated at room temperature for 1 hour; the plate was read and the data were recorded using Envision; the data were analyzed using Excel and Xlfit to calculate the IC50of the test compound. "++++" indicates IC50≤ 10 nM; "+++" indicates 10 nM < IC50≤ 100 nM; "++" indicates 100 nM < IC50≤ 2000 nM; "+" indicates 2000 nM < IC50.

**Q.** `C=C1CN2CCC[C@@]2(COc2nc3c(c(N4CC5CCC(C4)N5)n2)CS(=O)(=O)C(c2c(F)c(N)cc(C)c2C(F)(F)F)C3)C1` (stereo partly drawn) [Compound 11, 7-(3-amino-2-fluoro-5-methyl-6-(trifluoromethyl)phenyl)-4-(3,8-diazabicyclo[3.2.1]octane-3-yl)-2-(((S)-2-(methylene)tetrahydro-1H-pyrrolazin-7a(5H)-yl)methoxy)-7,8-d ihydro-5H-thiopyrano[4,3-d]pyrimidine-6,6-dioxide] was tested. Which IC50 did it give?
**A.** ≤ 10 nM

**Q.** Which IC50 does the source give for `CC#Cc1cc(N)c(F)c(C2Cc3nc(OC[C@@]45CCCN4C[C@H](F)C5)nc(N4CC5CCC(C4)N5)c3CS2(=O)=O)c1C(F)(F)F` (stereo partly drawn) [Compound 21, 7-(3-amino-2-fluoro-5-(prop-1-yn-1-yl)-6-(trifluoromethyl)phenyl)-4-(3,8-diazabicyclo[3.2.1]octane-3-yl)-2-(((2R,7AS)-2-fluorotetrahydro-1H-pyrrolazin-7a(5H)-yl)methoxy)-7,8-dihydro-5H-thiopyrano[4,3-d]pyrimidine-6,6-dioxide] here?
**A.** ≤ 10 nM

**Q.** “7-(3-amino-2-fluoro-5-methyl-6-(trifluoromethyl)phenyl)-4-(1R,5S)-3,8-diazabicyclo [3.2.1]octane-3-yl)-2-(((2R,7AS)-2-fluorotetrahydro-1H-pyrrolazin-7a(5H)-yl)methox y)-7,8-dihydro-5H-thiopyrano[4,3-d]pyrimidine-6,6-dioxide [Compound 36]” was tested. Which IC50 did it give?
**A.** ≤ 10 nM

**Q.** Which IC50 does the source give for “7-(3-amino-2-fluoro-5-methyl-6-(trifluoromethyl)phenyl)-4-(3,8-diazabicyclo[3.2.1]o ctane-3-yl)-2-(((S)-2-(difluoromethylene)tetrahydro-1H-pyrrolazin-7a(5H)-yl)methox y)-7,8-dihydro-5H-thiopyrano[4,3-d]pyrimidine-6,6-dioxide [Compound 9]” here?
**A.** ≤ 10 nM

**Q.** Which IC50 does the source give for `Cc1cc(N)c(F)c([C@@H]2Cc3nc(OC[C@@]45CCCN4C[C@H](F)C5)nc(N4C[C@H]5CC[C@@H](C4)N5)c3CS2(=O)=O)c1C(F)(F)F` [Compound 38A, (7S)-7-(3-amino-2-fluoro-5-methyl-6-(trifluoromethyl)phenyl)-4-((1R,5S)-3,8-diazabicyclo[3.2.1]octane-3-yl)-2-(((2R,7AS)-2-fluorotetrahydro-1H-pyrrolazin-7a(5H)-yl)methoxy)-7,8-dihydro-5H-thiopyrano[4,3-d]pyrimidine 6,6-Dioxide] here?
**A.** ≤ 10 nM

**Q.** For `CC#Cc1cc(N)c(F)c([C@@H]2Cc3nc(OC[C@@]45CCCN4C/C(=C\F)C5)nc(N4CC5CCC(C4)N5)c3CS2(=O)=O)c1C(F)(F)F` [Compound 24A, (7S)-7-(3-amino-2-fluoro-5-(prop-1-yn-1-yl)-6-(trifluoromethyl)phenyl)-4-(3,8-diazabicyclo[3.2.1]octane-3-yl)-2-(((S)-2-(fluoromethylene)tetrahydro-1H-pyrrolazin-7a(5 H)-yl)methoxy)-7,8-dihydro-5H-thiopyrano[4,3-d]pyrimidine-6,6-dioxide], which IC50 is on record?
**A.** ≤ 10 nM

**Q.** Which IC50 does the source give for `C=C1CN2CCC[C@@]2(COc2nc3c(c(N4CC5CCC(C4)N5)n2)CS(=O)(=O)C(c2nc(N)cc(C)c2C(F)(F)F)C3)C1` (stereo partly drawn) [Compound 20, 7-(6-amino-4-methyl-3-(trifluoromethyl)pyridin-2-yl)-2-(((S)-2-(methylene)tetrahydro-1H-pyrrolazin-7a(5H)-yl)methoxy)-4-(3,8-diazabicyclo[3.2.1]octane-3-yl)-7,8-dihy dro-5H-thiopyrano[4,3-d]pyrimidine-6,6-dioxide] here?
**A.** ≤ 10 nM

**Q.** `C=C1CN2CCC[C@@]2(COc2nc3c(c(N4CC5CCC(C4)N5)n2)CS(=O)(=O)C(c2c(F)c(N)cc(C#CC)c2C(F)(F)F)C3)C1` (stereo partly drawn) [Compound 22, 7-(3-amino-2-fluoro-5-(prop-1-yn-1-yl)-6-(trifluoromethyl)phenyl)-4-(3,8-diazabicyclo[3.2.1]octane-3-yl)-2-(((S)-2-(methylene)tetrahydro-1H-pyrrolazin-7a(5H)-yl)methoxy)-7,8-dihydro-5H-thiopyrano[4,3-d]pyrimidine-6,6-dioxide] was tested. Which IC50 did it give?
**A.** ≤ 10 nM

**Q.** How did the IC50 turn out when `Cc1cc(O)c(F)c([C@@H]2Cc3nc(OC[C@@]45CCCN4C[C@H](F)C5)nc(N4CCC[C@@](C)(O)C4)c3CS2(=O)=O)c1C(F)(F)F` [Compound 6A, (7S)-7-(2-fluoro-3-hydroxy-5-methyl-6-(trifluoromethyl)phenyl)-2-(((2R,7AS)-2-fluorotetrahydro-1H-pyrrolazin-7a(5H)-yl)methoxy)-4-((R)-3-hydroxy-3-methylpiperidin-1-yl)-7,8-dihydro-5H-thiopyrano[4,3-d]pyrimidine-6,6-dioxide] was run?
**A.** ≤ 10 nM

**Q.** With `Cc1cc(N)c(F)c([C@@H]2Cc3nc(OC[C@@]45CCCN4C[C@H](F)C5)nc(N4C[C@H]5CC[C@@H](C4)N5)c3CS2(=O)=O)c1C(F)(F)F` [Compound 36A, (7S)-7-(3-amino-2-fluoro-5-methyl-6-(trifluoromethyl)phenyl)-4-((1R,5S)-3,8-diazabicyclo[3.2.1]octane-3-yl)-2-(((2R,7AS)-2-fluorotetrahydro-1H-pyrrolazin-7a(5H)-yl)methoxy)-7,8-dihydro-5H-thiopyrano[4,3-d]pyrimidine 6,6-Dioxide] as the compound, how does the IC50 read?
**A.** ≤ 10 nM

**Q.** With `Cc1cc(N)c(F)c([C@@H]2Cc3nc(OC[C@@]45CCCN4CC(=C(F)F)C5)nc(N4CC5CCC(C4)N5)c3CS2(=O)=O)c1C(F)(F)F` [Compound 9A, (7S)-7-(3-amino-2-fluoro-5-methyl-6-(trifluoromethyl)phenyl)-4-(3,8-diazabicyclo[3. 2.1]octane-3-yl)-2-(((S)-2-(difluoromethylene)tetrahydro-1H-pyrrolazin-7a(5H)-yl)methoxy)-7,8-dihydro-5H-thiopyrano[4,3-d]pyrimidine-6,6-dioxide] as the compound, how does the IC50 read?
**A.** ≤ 10 nM

**Q.** How did the IC50 turn out when `Cc1cc(O)nc([C@H]2Cc3nc(OC[C@@]45CCCN4C[C@H](F)C5)nc(N4C[C@H]5CC[C@@H](C4)N5)c3CS2(=O)=O)c1C(F)(F)F` [Compound 4B, (7R)-4-((1R,5S)-3,8-diazabicyclo[3.2.1]octane-3-yl)-2-(((2R,7AS)-2-fluorotetrahydro-1H-pyrrolazin-7a(5H)-yl)methoxy)-7-(6-hydroxy-4-methyl-3-(trifluoromethyl)pyridin-2-yl)-7,8-dihydro-5H-thiopyrano[4,3-d]pyrimidine-6,6-dioxide] was run?
**A.** 10 to 100 nM

**Q.** Which IC50 does the source give for `CC#Cc1cc(N)cc([C@@H]2Cc3nc(OC[C@@]45CCCN4CC(=C(F)F)C5)nc(N4CC5CCC(C4)N5)c3CS2(=O)=O)c1C(F)(F)F` [Compound 31A] here?
**A.** ≤ 10 nM

**Q.** With `CC#Cc1cc(N)c(F)c([C@@H]2Cc3nc(OC[C@@]45CCCN4C[C@H](F)C5)nc(N4CC5CCC(C4)N5)c3CS2(=O)=O)c1C(F)(F)F` [Compound 21A, (7S)-7-(3-amino-2-fluoro-5-(prop-1-yn-1-yl)-6-(trifluoromethyl)phenyl)-4-(3,8-diazabicyclo[3.2.1]octane-3-yl)-2-(((2R,7AS)-2-fluorotetrahydro-1H-pyrrolazin-7a(5H)-yl)methoxy)-7,8-dihydro-5H-thiopyrano[4,3-d]pyrimidine-6,6-dioxide] as the compound, how does the IC50 read?
**A.** ≤ 10 nM

**Q.** For `Cc1cc(O)c(F)c([C@@H]2Cc3nc(OC[C@@]45CCCN4C[C@H](F)C5)nc(N4C[C@H]5CC[C@@H](C4)N5)c3CS2(=O)=O)c1C(F)(F)F` [Compound 2A, (7S)-4-((1R,5S)-3,8-diazabicyclo[3.2.1]octane-3-yl)-7-(2-fluoro-3-hydroxy-5-methyl-6-(trifluoromethyl)phenyl)-2-(((2R,7AS)-2-fluorotetrahydro-1H-pyrrolazin-7a(5H)-yl)methoxy)-7,8-dihydro-5H-thiopyrano[4,3-d]pyrimidine-6,6-dioxide], which IC50 is on record?
**A.** 10 to 100 nM
